Measurements from patent US20240254138A1, “TRICYCLIC PYRIMIDINES AS CYCLIN-DEPENDENT KINASE 7 (CDK7) INHIBITORS” (JANSSEN PHARMACEUTICA NV, priority 2021, published 2024).
Like-named read-outs stand apart in the source and are kept apart here.

Tests used:
[1] = system: RNA Polymerase II Serine 5 phosphorylation (Rpb1 CTD, downstream substrate of CDK7) in A549 cells; experiment: Imaging-based cellular RNA PolII Ser5 phosphorylation assay in A549 cells; format: cell-based, human; conditions: for CDK7_A549 Wild-type CDK7 (pIC50): A549 cells; for IC50: Homo sapiens
How it was run: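 IC50 derived by fitting % control (DMSO high, 10 μM reference low) against concentration, with Hill slope. Readout: high-content imaging of phospho-Ser5 Rpb1 CTD antibody staining in fixed, permeabilized A549 cells exposed to compound 3 h after 20 h culture in 1% FBS DMEM.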

[2] = system: RNA Polymerase II Serine 5 phosphorylation in A549 cells overexpressing CDK7-mutant (C312S); experiment: Imaging-based cellular RNA PolII Ser5 phosphorylation assay in A549 cells overexpressing CDK7-mutant (C312S); format: cell-based, human; conditions: for CDK7_A549 mutant hCDK7(pIC50): A549 cells overexpressing CDK7-mutant (C312S); for IC50: Homo sapiens
How it was run: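 Readout was automated imaging of anti-phospho-Ser5 Rpb1 CTD immunofluorescence, with IC50 fitted to % control versus concentration. Cells were A549 stably overexpressing non-covalently targetable CDK7 C312S alongside wild-type, exposed to compound 3 h at 37 °C. DMSO and 10 μM reference compound served as controls.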

[3] = target: CDK7/cyclinH/MAT1 trimeric complex (Homo sapiens, UniProt P50613); experiment: In vitro CDK7 assay, potency of irreversible covalent inhibitors (kinact/KI), coupled PK/LDH ADP readout at 340 nm
[4] = wild-type CDK7, RNA PolII Ser5 phosphorylation, averaged over all measurements
[5] = RNA PolII Ser5 phosphorylation, averaged over all measurements
[6] = CDK7 (20 nM enz.) (KI, μM), 20 nM enzyme
[7] = A549, A549 cells, wild-type CDK7, RNA PolII Ser5 phosphorylation, averaged over all measurements, read-out: CDK7_A549 Wild-type CDK7 (pIC50) (converted)
[8] = A549, A549 cells overexpressing CDK7-mutant (C312S), RNA PolII Ser5 phosphorylation, averaged over all measurements, read-out: CDK7_A549 mutant hCDK7(pIC50) (converted)
[9] = read-out: CDK7 (20 nM enz.) (kinact, s^−1), 20 nM enzyme
[10] = read-out: CDK7 (20 nM enz.) (kinact/KI, M^−1*s^−1), 20 nM enzyme
[11] = read-out: CDK7 (20 nM enz.) (kobs/[I], M^−1*s^−1), 20 nM enzyme
[12] = CDK7 (KI(μM)), […], 1 mM ATP, room temperature, averaged values over all measurements
[13] = read-out: CDK7 (kinact, s^−1), kinact = maximal rate of inactivation, 1 mM ATP, room temperature, averaged values over all measurements
[14] = read-out: CDK7 (kinact/KI, M^−1*s^−1), potency of irreversible covalent inhibitors, 1 mM ATP, room temperature, averaged values over all measurements

Chain of CDK7/cyclinH/MAT1 trimeric complex (P50613 whole entry): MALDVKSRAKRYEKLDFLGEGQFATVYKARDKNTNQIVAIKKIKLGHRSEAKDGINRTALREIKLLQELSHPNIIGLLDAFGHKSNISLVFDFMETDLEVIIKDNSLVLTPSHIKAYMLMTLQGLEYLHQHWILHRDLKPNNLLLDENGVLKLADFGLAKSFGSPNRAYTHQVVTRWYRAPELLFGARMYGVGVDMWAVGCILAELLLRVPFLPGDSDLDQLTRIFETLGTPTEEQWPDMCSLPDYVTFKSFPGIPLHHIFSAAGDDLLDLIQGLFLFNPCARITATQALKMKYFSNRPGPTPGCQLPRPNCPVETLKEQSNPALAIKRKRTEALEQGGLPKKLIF
Chain of CDK7/cyclinH/MAT1 trimeric complex (P51946 whole entry partner): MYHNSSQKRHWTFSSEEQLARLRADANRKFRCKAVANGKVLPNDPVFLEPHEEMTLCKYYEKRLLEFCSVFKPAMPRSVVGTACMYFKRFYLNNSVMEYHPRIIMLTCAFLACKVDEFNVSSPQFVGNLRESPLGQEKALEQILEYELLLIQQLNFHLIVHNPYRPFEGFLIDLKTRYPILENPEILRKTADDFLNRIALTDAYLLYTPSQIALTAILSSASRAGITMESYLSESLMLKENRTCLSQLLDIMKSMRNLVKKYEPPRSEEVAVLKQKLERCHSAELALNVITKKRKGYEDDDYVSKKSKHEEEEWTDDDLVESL
Chain of CDK7/cyclinH/MAT1 trimeric complex (P51948 whole entry partner): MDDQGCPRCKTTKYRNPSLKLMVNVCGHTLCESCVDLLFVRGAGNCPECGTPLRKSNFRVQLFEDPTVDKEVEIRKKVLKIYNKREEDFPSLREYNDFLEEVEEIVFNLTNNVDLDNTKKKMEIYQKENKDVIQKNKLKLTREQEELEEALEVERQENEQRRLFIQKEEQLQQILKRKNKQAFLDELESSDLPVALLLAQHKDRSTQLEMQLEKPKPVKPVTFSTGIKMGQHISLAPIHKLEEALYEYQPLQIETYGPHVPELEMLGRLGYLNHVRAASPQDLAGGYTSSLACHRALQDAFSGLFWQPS

SMILES | Ki [3, 6] | IC50 [1, 7] | IC50 [2, 8] | kinact [3, 9] | kinact/KI [3, 10] | other results
C=CC(=O)N1CC(N2CC(c3cc4c(c(C)n3)OCc3c(N5CCOCC5)ccnc3N4)C2)C1 [Compound 273] | 0.0474 µM | – | – | – | – | CDK7_A549 Wild-type CDK7 (pIC50) [1, 4]: 6.94; CDK7_A549 mutant hCDK7(pIC50) [2, 5]: <5; CDK7 (20 nM enz.) (kinact, s^−1) ([3]; 20 nM enzyme): 4.486e-05 s⁻¹; CDK7 (20 nM enz.) (kinact/KI, M^−1*s^−1) ([3]; 20 nM enzyme): 945.57 M⁻¹ s⁻¹
C=CC(=O)N1CC(N2CCC(c3cc4c(c(C#N)n3)OCc3c(-c5cnn(C)c5)ccnc3N4)CC2)C1 [Compound 298] | 0.0311 µM | 263 nM | > 10000 nM | 8.92e-05 s⁻¹ | 2870 M⁻¹ s⁻¹ | –
C=CC(=O)N1CC(N2CCCN(C)[C@@H](c3cc(C)c4c(c3)Nc3nccc(C5CCOCC5)c3CO4)C2)C1 (single isomer, unassigned) [Compound 259] | 0.675 µM | > 10000 nM | > 10000 nM | 3.66e-05 s⁻¹ | 54.2 M⁻¹ s⁻¹ | –
CC#CC(=O)N1CC(N2CC[C@@H](c3cc4c(c(C)n3)O[C@H](C)c3c(N5CCOCC5)ccnc3N4)C2)C1 (single isomer, unassigned) [Compound 308] | 0.434 µM | 447 nM | > 10000 nM | 1.51e-05 s⁻¹ | 34.8 M⁻¹ s⁻¹ | –
C=CC(=O)N1CC[C@H](N2CC(c3cc(C)c4c(c3)Nc3nccc(N5CCOCC5)c3[C@@H](C)O4)C2)C1 (single isomer, unassigned) [Compound 388] | – | ~22.9 nM | 7240 nM | – | – | kinact/KI [3, 11]: 1270 M⁻¹ s⁻¹
C=CC(=O)N1CC[C@@H](N2CC(c3cc4c(c(C)n3)O[C@H](C)c3c(-c5cnn(C)c5)ccnc3N4)C2)C1 (single isomer, unassigned) [Compound 482] | – | 89.1 nM | > 10000 nM | – | 339 M⁻¹ s⁻¹ | –
C=CC(=O)N1CC(N2CCC(c3cc4c(cn3)OCc3c(N5CCOCC5)ccnc3N4)CC2)C1 [Compound 137] | 0.0382 µM | 126 nM | > 10000 nM | 6.41e-05 s⁻¹ | 1680 M⁻¹ s⁻¹ | –
C=CC(=O)N1CC(N2CCC(c3cc4c(c(C)n3)OCc3c(N5CCOCC5)ccnc3N4)N(C)CC2)C1 (centres unmarked) [Compound 367] | 0.0482 µM | 75.9 nM | 10500 nM | 3.37e-05 s⁻¹ | 698 M⁻¹ s⁻¹ | –
COC(=O)/C=C/C(=O)N1CC[C@@H](N2CCC(c3cc4c(c(C)n3)OCc3c(-c5cnn(C)c5)ccnc3N4)CC2)C1 (single isomer, unassigned) [Compound 301] | – | 24 nM | > 10000 nM | – | – | kinact/KI [3, 11]: 2790 M⁻¹ s⁻¹
CC#CC(=O)N1CC(N2CCC(c3cc4c(c(C5CC5)n3)O[C@H](C)c3c(N5CCOCC5)ccnc3N4)CC2)C1 (single isomer, unassigned) [Compound 499] | – | – | – | – | – | CDK7_A549 Wild-type CDK7 (pIC50) [1, 4]: 5.74; CDK7_A549 mutant hCDK7(pIC50) [2, 5]: <5; CDK7 (20 nM enz.) (kinact, s^−1) ([3]; 20 nM enzyme): 4.482e-05 s⁻¹; CDK7 (20 nM enz.) (kinact/KI, M^−1*s^−1) ([3]; 20 nM enzyme): 20.4314 M⁻¹ s⁻¹; Ki ([3]; read-out: CDK7 (20 nM enz.) (KI), 20 nM enzyme): 2.19 µM
C=CC(=O)N1CC(N2CCC(c3ccc4c(c3)Nc3nccc(N5CCOCC5)c3CO4)CC2)C1 [Compound 4] | – | – | – | – | – | CDK7_A549 Wild-type CDK7 (pIC50) [1, 4]: 6.84; CDK7_A549 mutant hCDK7(pIC50) [2, 5]: <5; Ki [3, 12]: 0.0617 µM; CDK7 (kinact/KI, M^−1*s^−1) ([3]; potency of irreversible covalent inhibitors, 1 mM ATP, room temperature, averaged values over all measurements): 3147.06 M⁻¹ s⁻¹; kinact [3, 13]: 0.000303 s⁻¹
C=CC(=O)N1CC[C@@H](N2CC(c3cc4c(c(C5CC5)n3)O[C@@H](C)c3c(N5CCOCC5)ccnc3N4)C2)C1 (single isomer, unassigned) [Compound 467] | 0.0121 µM | 117 nM | > 10000 nM | 3.18e-05 s⁻¹ | 2630 M⁻¹ s⁻¹ | –
C=CC(=O)N1CC(N2CC(c3cc4c(c(C)n3)O[C@H](C)c3c(N5CCOCC5)ccnc3N4)C2)C1 (single isomer, unassigned) [Compound 343] | 0.0503 µM | – | – | – | – | CDK7_A549 Wild-type CDK7 (pIC50) [1, 4]: 7.15; CDK7_A549 mutant hCDK7(pIC50) [2, 5]: <5; CDK7 (20 nM enz.) (kinact, s^−1) ([3]; 20 nM enzyme): 5.902e-05 s⁻¹; CDK7 (20 nM enz.) (kinact/KI, M^−1*s^−1) ([3]; 20 nM enzyme): 1172.91 M⁻¹ s⁻¹
CC#CC(=O)N1CC[C@H](N2CCC(c3cc4c(c(C)n3)OCc3c(-c5cnn(C)c5)ccnc3N4)CC2)C1 (single isomer, unassigned) [Compound 304] | 0.111 µM | 129 nM | > 10000 nM | 4.09e-05 s⁻¹ | 369 M⁻¹ s⁻¹ | –
CC#CC(=O)N1CCC(N2CC(c3cc4c(c(C#N)n3)O[C@@H](C)c3c(C5CCOCC5)ccnc3N4)C2)CC1 (single isomer, unassigned) [Compound 518] | 0.0075 µM | 64.6 nM | 4070 nM | 3.26e-05 s⁻¹ | 4340 M⁻¹ s⁻¹ | –
C=CC(=O)N1CC[C@H](N2CCC(c3cc4c(c(C)n3)OCc3c(N5CCOCC5)ccnc3N4)CC2)C1 (single isomer, unassigned) [Compound 283] | 0.187 µM | 69.2 nM | > 10000 nM | 7.12e-05 s⁻¹ | 381 M⁻¹ s⁻¹ | –
C=CC(=O)N1CC(N2CCC(c3ccc4c(c3)Nc3nccc(N5CCS(=O)(=O)CC5)c3CO4)CC2)C1 [Compound 9] | – | 447 nM | > 10000 nM | – | – | kinact/KI [3, 14]: 486 M⁻¹ s⁻¹
C=CC(=C)N1CC(N2CCC(c3cc4c(cc3C)OCc3c(N5CCOCC5)ccnc3N4)CC2)C1 [Compound 19] | – | – | – | – | – | IC50 ([1]; A549, read-out: CDK7_A549 Wild-type CDK7 (pIC50) (converted)): 166 nM; IC50 ([2]; A549, read-out: CDK7_A549 mutant hCDK7(pIC50) (converted)): > 10000 nM; kinact/KI ([3]; read-out: CDK7 (kinact/KI, M^−1*s^−1)): 304 M⁻¹ s⁻¹
CC#CC(=O)N1CC[C@@H](N2CC(c3cc4c(c(C5CC5)n3)O[C@@H](C)c3c(N5CCOCC5)ccnc3N4)C2)C1 (single isomer, unassigned) [Compound 472] | – | 204 nM | > 10000 nM | – | 79.5 M⁻¹ s⁻¹ | –
CC#CC(=O)N1CC[C@H](N2CC(c3cc4c(c(C5CC5)n3)O[C@@H](C)c3c(N5CCOCC5)ccnc3N4)C2)C1 (single isomer, unassigned) [Compound 470] | 0.0394 µM | 251 nM | > 10000 nM | 3e-05 s⁻¹ | 761 M⁻¹ s⁻¹ | –
C=CC(=O)N1CC(N2CC(c3cc4c(c(C)n3)O[C@H](C)c3c(C5CCOCC5)ccnc3N4)C2)C1 (single isomer, unassigned) [Compound 477] | – | 166 nM | > 10000 nM | – | 342 M⁻¹ s⁻¹ | –
CC#CC(=O)N1CC(N2CCC(c3cc(C#N)c4c(c3)Nc3nccc(N5CCOCC5)c3[C@H](C)O4)CC2)C1 (single isomer, unassigned) [Compound 442] | 0.772 µM | 562 nM | > 10000 nM | 3.46e-05 s⁻¹ | 44.8 M⁻¹ s⁻¹ | –
CC#CC(=O)N1CCC(N2CC(c3cc4c(c(C5CC5)n3)OCc3c(N5CCOCC5)ccnc3N4)C2)CC1 [Compound 335] | 0.0383 µM | 55 nM | 3630 nM | 1.86e-05 s⁻¹ | 486 M⁻¹ s⁻¹ | –
C=CC(=O)N1CC(c2ncc(-c3cc(C)c4c(c3)Nc3nccc(N5CCS(=O)(=O)CC5)c3CO4)cn2)C1 [Compound 108] | 0.57 µM | 933 nM | > 10000 nM | 5.75e-05 s⁻¹ | 101 M⁻¹ s⁻¹ | –
C=CC(=O)N1CC(N2CCC(c3cc(F)c4c(c3)Nc3nccc(-c5cnn(C)c5)c3CO4)CC2)C1 [Compound 189] | – | – | – | – | – | CDK7_A549 Wild-type CDK7 (pIC50) [1, 4]: 7.37; CDK7_A549 mutant hCDK7(pIC50) [2, 5]: <5; kinact/KI [3, 11]: 1440 M⁻¹ s⁻¹
C=CC(=O)N1CC(N2CCC(c3ccc4c(c3)OCc3c(-c5cnn(C)c5)ccnc3N4)CC2)C1 [Compound 52] | – | 282 nM | 2820 nM | – | – | Ki [3, 12]: 0.166 µM; kinact [3, 13]: 0.000166 s⁻¹; kinact/KI [3, 14]: 998 M⁻¹ s⁻¹
C=CC(=O)N1CC(N2CCC(c3ccc4c(c3)Nc3nccc(C5=CCOCC5)c3CO4)CC2)C1 [Compound 10] | – | 204 nM | > 10000 nM | – | – | Ki [3, 12]: 0.0555 µM; kinact [3, 13]: 0.000107 s⁻¹; kinact/KI [3, 14]: 1570 M⁻¹ s⁻¹
